The target in assay [1] is T1, D3R (Homo sapiens, UniProt P35462). As to the kind of experiment: Radioligand binding, [125I]IABN, HEK cells expressing human D3. Conditions: for D2/D3 ratio: (Ki for D2 receptors)/(Ki for D3 receptors).
The target in the next assay is human D2 (long) (Homo sapiens, UniProt P14416). As to the kind of experiment: Radioligand binding, [125I]IABN, HEK cells expressing human D2. Conditions: human D2 in HEK cells, mean ± SEM, at least three experiments.
A further assay has as its target α4β4 (Rattus norvegicus, UniProt P09483+P12392). As to the kind of experiment: PDSP binding, α4β4. Conditions: read-out: inhibition in primary assay at 10 μM.
For assay [2], the target named is T1, D3R. As to the kind of experiment: Dopamine-mediated β-arrestin 2 recruitment assay. Type of assay: cell-based. Conditions: DA as orthosteric ligand. (Activated receptors often draw arrestin, which recruitment assays turn into a signal.)
In assay [3] the target is serotonin subclass receptors. The assay can be described thus: PDSP binding, serotonin subclass receptors. Conditions: read-out: Ki for all of the serotonin subclass receptors.
In the next assay the target is α3β2 (Rattus norvegicus, UniProt P04757+P12390). As to the kind of experiment: PDSP binding, α3β2. Conditions: read-out: inhibition in primary assay at 10 μM.
Chain of α3β2 (P04757 26-499): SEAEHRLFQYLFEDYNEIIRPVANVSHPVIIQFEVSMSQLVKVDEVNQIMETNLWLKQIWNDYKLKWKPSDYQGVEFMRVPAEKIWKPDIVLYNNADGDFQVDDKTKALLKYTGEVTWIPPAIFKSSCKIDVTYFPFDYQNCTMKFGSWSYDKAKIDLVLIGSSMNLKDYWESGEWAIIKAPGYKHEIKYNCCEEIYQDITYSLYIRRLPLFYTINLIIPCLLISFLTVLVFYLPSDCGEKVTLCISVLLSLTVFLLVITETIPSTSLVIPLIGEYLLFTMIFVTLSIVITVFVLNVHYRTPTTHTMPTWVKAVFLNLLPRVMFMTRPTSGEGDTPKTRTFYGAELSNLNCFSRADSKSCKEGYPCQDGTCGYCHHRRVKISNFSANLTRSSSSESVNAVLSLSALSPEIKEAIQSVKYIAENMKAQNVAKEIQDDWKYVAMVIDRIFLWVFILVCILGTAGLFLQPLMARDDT
Chain of α3β2 (P12390 25-500): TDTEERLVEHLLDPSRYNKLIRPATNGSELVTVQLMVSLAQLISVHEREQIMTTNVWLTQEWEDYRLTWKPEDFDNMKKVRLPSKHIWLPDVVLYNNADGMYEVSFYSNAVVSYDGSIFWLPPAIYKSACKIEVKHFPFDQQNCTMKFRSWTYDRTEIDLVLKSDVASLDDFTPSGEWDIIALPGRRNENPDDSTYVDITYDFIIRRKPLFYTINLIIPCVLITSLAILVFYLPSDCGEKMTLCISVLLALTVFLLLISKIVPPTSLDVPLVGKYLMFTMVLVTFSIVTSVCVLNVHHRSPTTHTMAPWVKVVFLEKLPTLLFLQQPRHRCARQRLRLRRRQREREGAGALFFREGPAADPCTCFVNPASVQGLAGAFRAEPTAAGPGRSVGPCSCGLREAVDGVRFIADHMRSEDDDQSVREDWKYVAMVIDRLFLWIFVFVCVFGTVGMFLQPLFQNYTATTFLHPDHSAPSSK
A further assay deals with α2β4 (Rattus norvegicus, UniProt P12389+P12392). The assay can be described thus: PDSP binding, α2β4. Conditions: read-out: inhibition in primary assay at 10 μM.
Chain of α2β4 (P12389 28-511): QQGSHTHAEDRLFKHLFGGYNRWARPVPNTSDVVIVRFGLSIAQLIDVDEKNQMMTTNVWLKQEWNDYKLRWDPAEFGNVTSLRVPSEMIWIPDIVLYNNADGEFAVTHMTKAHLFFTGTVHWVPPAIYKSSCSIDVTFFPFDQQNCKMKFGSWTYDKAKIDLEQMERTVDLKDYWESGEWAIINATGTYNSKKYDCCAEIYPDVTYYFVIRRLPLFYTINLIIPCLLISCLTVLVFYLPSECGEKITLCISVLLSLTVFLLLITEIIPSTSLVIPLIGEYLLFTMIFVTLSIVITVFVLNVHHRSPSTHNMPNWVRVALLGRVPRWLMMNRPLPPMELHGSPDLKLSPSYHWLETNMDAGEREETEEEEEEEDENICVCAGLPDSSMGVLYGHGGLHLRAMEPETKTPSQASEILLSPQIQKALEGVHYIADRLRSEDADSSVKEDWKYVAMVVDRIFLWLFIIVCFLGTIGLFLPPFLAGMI
Chain of α2β4 (P12392 21-495): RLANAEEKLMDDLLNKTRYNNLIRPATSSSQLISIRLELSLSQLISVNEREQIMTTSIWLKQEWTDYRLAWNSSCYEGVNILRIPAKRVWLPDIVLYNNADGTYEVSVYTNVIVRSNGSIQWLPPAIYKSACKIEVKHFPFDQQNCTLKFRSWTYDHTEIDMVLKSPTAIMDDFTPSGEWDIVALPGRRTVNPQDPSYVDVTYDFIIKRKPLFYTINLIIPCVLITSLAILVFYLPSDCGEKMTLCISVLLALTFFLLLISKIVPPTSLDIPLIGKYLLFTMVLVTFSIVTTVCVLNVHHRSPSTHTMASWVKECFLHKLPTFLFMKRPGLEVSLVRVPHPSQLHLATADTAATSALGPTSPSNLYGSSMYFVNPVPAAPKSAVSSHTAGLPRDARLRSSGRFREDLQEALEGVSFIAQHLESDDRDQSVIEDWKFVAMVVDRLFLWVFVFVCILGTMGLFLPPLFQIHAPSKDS
The next assay addresses α2β2 (Rattus norvegicus, UniProt P12389+P12390). As to the kind of experiment: PDSP binding, α2β2. Conditions: read-out: inhibition in primary assay at 10 μM.
In assay [4] the target is T1, D3R. The assay can be described thus: PDSP β-arrestin recruitment Tango assay, D3R. It counts as cell-based. Conditions: Tango assays, agonist and antagonist mode.
The target in the next assay is α3β4 (Rattus norvegicus, UniProt P04757+P12392). The assay can be described thus: PDSP binding, α3β4. Conditions: read-out: inhibition in primary assay at 10 μM.
Chain of α3β4 (P04757 26-499): as the sequence (P04757 26-499) above
Chain of α3β4 (P12392 21-495): as the sequence (P12392 21-495) above
The target of a further assay is D2R (Homo sapiens, UniProt P14416). As to the kind of experiment: PDSP β-arrestin recruitment Tango assay, D2R. It counts as cell-based. Conditions: Tango assays, agonist and antagonist mode.
Chain of D2R (P14416 whole entry): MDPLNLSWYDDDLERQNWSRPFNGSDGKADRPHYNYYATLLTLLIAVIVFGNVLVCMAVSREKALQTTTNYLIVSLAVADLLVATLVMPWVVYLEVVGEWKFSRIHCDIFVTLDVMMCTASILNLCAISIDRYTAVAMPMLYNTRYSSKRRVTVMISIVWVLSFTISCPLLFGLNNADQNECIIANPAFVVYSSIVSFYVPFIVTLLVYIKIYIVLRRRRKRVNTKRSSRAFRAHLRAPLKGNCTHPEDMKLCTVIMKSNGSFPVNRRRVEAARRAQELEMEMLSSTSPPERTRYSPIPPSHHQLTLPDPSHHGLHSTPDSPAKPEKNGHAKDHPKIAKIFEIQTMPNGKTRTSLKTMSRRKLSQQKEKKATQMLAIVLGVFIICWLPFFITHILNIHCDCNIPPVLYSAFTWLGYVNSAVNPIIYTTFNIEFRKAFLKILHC

pKi: −log10 of the molar value.

For orientation: inhibition means the relative decrease from the control value, in per cent. The term pKi denotes the negative decadic logarithm of the Ki, by convention in mol/L.

T1 sequence (P35462 whole entry): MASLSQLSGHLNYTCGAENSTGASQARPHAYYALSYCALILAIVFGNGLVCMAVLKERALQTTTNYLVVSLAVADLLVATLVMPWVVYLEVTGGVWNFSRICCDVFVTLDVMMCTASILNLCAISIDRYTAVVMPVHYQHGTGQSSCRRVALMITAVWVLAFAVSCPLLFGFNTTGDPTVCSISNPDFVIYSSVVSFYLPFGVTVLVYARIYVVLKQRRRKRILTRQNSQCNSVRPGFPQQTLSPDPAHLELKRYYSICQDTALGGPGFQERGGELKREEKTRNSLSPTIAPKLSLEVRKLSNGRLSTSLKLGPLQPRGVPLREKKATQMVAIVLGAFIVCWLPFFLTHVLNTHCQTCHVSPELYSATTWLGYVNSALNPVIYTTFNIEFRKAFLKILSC
Chain of α4β4 (P09483 31-630): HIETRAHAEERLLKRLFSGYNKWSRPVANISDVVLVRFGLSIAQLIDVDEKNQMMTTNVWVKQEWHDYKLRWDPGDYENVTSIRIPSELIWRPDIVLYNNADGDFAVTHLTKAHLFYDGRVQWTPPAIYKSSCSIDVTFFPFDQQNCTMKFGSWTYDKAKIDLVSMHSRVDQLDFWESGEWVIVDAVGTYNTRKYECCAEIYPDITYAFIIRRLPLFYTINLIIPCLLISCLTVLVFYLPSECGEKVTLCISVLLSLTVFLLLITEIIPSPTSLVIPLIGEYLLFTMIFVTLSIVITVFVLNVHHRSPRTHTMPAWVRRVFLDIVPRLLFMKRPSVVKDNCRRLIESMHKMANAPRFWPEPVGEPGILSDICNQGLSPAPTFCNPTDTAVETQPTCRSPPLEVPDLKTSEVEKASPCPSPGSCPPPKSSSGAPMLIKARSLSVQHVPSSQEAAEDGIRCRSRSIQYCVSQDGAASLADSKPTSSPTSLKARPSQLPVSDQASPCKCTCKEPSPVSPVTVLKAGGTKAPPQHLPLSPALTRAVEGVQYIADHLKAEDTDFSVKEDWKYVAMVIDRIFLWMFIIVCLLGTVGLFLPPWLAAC
Chain of α4β4 (P12392 21-495): as the sequence (P12392 21-495) above
Chain of α2β2 (P12389 28-511): as the sequence (P12389 28-511) above
Chain of α2β2 (P12390 25-500): as the sequence (P12390 25-500) above
Chain of human D2 (long) (P14416 whole entry): as the sequence (P14416 whole entry) above

Turning to “3-(2-((4-Methyl-5-phenyl-4H-1,2,4-triazol-3-yl)thio)propyl)-3,9-diazaspiro[5.5]undecane [Compound 6f]”, the D2/D3 ratio on D3R [1] was above 197.
As for `COc1ccccc1N1CCC2(CCNCC2)CC1` [4b], the “Ki ± SEM D2R” value at human D2 (long) was 99,379 ± 11,752 nM. Moreover, on D3R [1], the D2/D3 ratio was above 2.5. In addition, the “Ki ± SEM D3R” value at D3R [1] (human D3 in HEK cells, [125I]IABN, mean ± SEM, at least three experiments) is reported as >39,319 nM.
Turning to `COc1ccccc1N1CCC2(CCN(CCCSc3nnc(-c4ccccc4)n3C)CC2)CC1` [Compound 1, 3-(2-methoxyphenyl)-9-(3-((4-methyl-5-phenyl-4H-1,2,4-triazol-3-yl)thio)-propyl)-3,9-diazaspiro[5.5]undecane], the inhibition at 10 µM on α4β4, at α3β2, on α2β4 and at α2β2 was below 50% in each case. In addition, at D3R [2], the “Schild plot regression slope” value is recorded as “linear regression slope near unity”. Moreover, the “shift of dopamine dose-response curves” value at D3R [2] is “limitless rightward shift”. Besides, in assay [3], the pKi was below 6.00.
With `CCCCN1CCC2(CC1)CCN(c1ccccc1OC)CC2` [Compound 5a, 3-Butyl-9-(2-methoxyphenyl)-3,9-diazaspiro[5.5]undecane], at D3R [1], the D2/D3 ratio is above 9.6.
The same measure, in the same setting: under `CCCCN1CCC2(CCN(c3ccccc3OC)C2)C1` (stereo not shown) [Compound 5c, 2-Butyl-7-(2-methoxyphenyl)-2,7-diazaspiro[4.4]nonane] stands above 1.1; under `CCCSc1nnc(-c2ccccc2)n1C` [Compound 6a, 4-Methyl-3-phenyl-5-(propylthio)-4H-1,2,4-triazole], above 3.6.
Consider `COc1ccccc1N1CCC2(CCN(CCCSc3nnc(-c4ccccc4)[nH]3)CC2)CC1` [Compound 17, 3-(2-Methoxyphenyl)-9-(3-((5-phenyl-4H-1,2,4-triazol-3-yl)thio)-propyl)-3,9-diazaspiro[5.5]undecane], for which the D2/D3 ratio on D3R [1] was determined as 35.
In the case of `COc1ccccc1N1CCC2(CCN(CCSc3nnc(-c4ccccc4)n3C)CC2)CC1` [Compound 20, 3-(2-Methoxyphenyl)-9-(2-((4-methyl-5-phenyl-4H-1,2,4-triazol-3-yl)thio)ethyl)-3,9-diazaspiro[5.5]undecane], the D2/D3 ratio on D3R [1] was determined as 100.
Consider `COc1ccccc1N1CCN(CCCSc2nnc(-c3ccccc3)n2C)CC1` [Compound 31], for which the inhibition at 10 µM on α4β4, at α3β4, on α3β2, at α2β4 and on α2β2 was below 50% in each case. In addition, at D3R [4], the “functional behavior at D3R” value is “weak agonist/antagonist”. In addition, at D3R [2], the “shift of dopamine dose-response curves” value is listed as “limitless rightward shift”. Further, the “functional behavior at D2R” value on D2R is listed as “weak agonist/antagonist”.
For the compound `COc1ccccc1N1CCC2(CCN(CCCSc3nnc(-c4ccccc4)n3C)C2)CC1` [Compound 34, 8-(2-Methoxyphenyl)-2-(3-((4-methyl-5-phenyl-4H-1,2,4-triazol-3-yl)thio)propyl)-2,8-diazaspiro[4.5]decane], at D3R [1] (relative to 33), the “increase in receptor selectivity” value came out at 2 fold.

Source of the values: paper PMC12079613 (Journal of medicinal chemistry, 2019).
